These results are taken from PMC6057745, “The dual role of chloride in synaptic vesicle glutamate transport” (eLife, 2018).

For assay [1], the target named is T1, VGLUT1 (Rattus norvegicus, UniProt Q62634).
T1 construct: gene Slc17a7; full-length rat VGLUT1 fused to EGFP (pEGFP-N1); co-expressed with Rab5 Q79L-mCherry in HEK293T; whole endosome recording of isolated enlarged endosomes
T1 sequence (Q62634 1-560): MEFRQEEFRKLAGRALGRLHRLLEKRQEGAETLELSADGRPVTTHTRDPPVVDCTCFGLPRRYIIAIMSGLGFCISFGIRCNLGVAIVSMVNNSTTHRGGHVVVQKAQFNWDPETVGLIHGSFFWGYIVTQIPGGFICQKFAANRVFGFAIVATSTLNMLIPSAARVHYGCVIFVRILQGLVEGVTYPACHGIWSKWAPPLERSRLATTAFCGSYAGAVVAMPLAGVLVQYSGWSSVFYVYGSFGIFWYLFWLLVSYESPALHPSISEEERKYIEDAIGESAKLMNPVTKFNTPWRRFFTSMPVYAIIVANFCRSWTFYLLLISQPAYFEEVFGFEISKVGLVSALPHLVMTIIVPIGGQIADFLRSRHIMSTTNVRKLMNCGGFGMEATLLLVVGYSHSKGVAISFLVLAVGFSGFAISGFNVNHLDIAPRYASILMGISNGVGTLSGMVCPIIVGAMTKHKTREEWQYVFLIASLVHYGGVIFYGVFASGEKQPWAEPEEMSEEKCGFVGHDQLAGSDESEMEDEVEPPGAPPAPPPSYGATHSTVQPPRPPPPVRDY
The assay is described as follows: whole endosome patch clamp, block of Cl- and glutamate currents. In kind it is biochemical.

Assay [2] concerns the target T1, VGLUT1. The assay is described as follows: whole endosome patch clamp, outward glutamate currents. In kind it is biochemical. On the procedure: whole endosome patch clamp, outward glutamate currents on VGLUT1 | glutamate currents saturate with EC50376 µM
In general terms: In patch-clamp work, channel activity is measured electrically.

Broadly, the IC50 is the concentration at which inhibition is half-maximal. Higher therefore signals weaker potency in that assay. At VGLUT1 [1], `Cc1cc(-c2ccc(/N=N/c3ccc4c(S(=O)(=O)O)cc(S(=O)(=O)O)c(N)c4c3O)c(C)c2)ccc1/N=N/c1ccc2c(S(=O)(=O)O)cc(S(=O)(=O)O)c(N)c2c1O` [Evans Blue] registered an IC50 of roughly 0.2 µM.
As usually defined, the EC50 is the concentration at which the effect is half-maximal. A lower EC50 goes with a more potent agent. Turning to `N[C@@H](CCC(=O)O)C(=O)O` [glutamate], on VGLUT1 [2], a half-maximal response (EC50) required 376 µM.
